In patent publication US7511076B2, “Nitrosation-inducible inhibitors biological macromolecules” (New York University, priority 2000, dated 2009):

Columns and labels:
[1] = test system: Escherichia coil strain BL21 and Bacillus subtilis Strain IS75; test: Bactericidal effect on Gram-negative and Gram-positive bacteria; assay type: cell-based, Escherichia coli; Bacillus subtilis; conditions: for Effect of the additive on the bactericidal effect of ANSA (CFU): NO trap or water solution of NO added with ANSA
Description: (§1) ANSA Derivatives as a New Class of Antibiotics and Antineoplastic Drugs. ANSA derivatives (shown in FIG. 9) were tested for their cytotoxic capabilities using wild type strains of Gram-negative and Gram-positive bacterial (Escherichia coil strain BL21 and Bacillus subtilis Strain IS75).
In order to be nitrosated, peptidyl-ANSA must undergo cleavage of the C-terminal amino acid residue to relieve the R3 NH2 group. Taking advantage of the chromogenic nature of ANSA compounds, it was possible to determine whether the peptidyl-ANSA were transported in the cell and processed by proteolysis.

[2] = target: T1, RNA polymerase from E. coli (RNAP) (Escherichia coli, UniProt P0A7Z4+P0A8T7+P0A8V2); test: *NO-dependent RNAP inactivation assay (in vitro transcription); assay type: biochemical; conditions: for Effect on transcription by RNAP, agent alone: agent added alone (*NO low dose without ANSA; ANSA without *NO); for *NO-dependent inactivation of RNAP (transcription) in the presence of ANSA: RNAP + ANSA treated with low dose of *NO
T1 construct: made in house
Description: Transcription reactions (total volume=20 μl) were performed in a buffer containing 20 mM Tris HCL, pH 7.5, 10 mM MgCl2, 50 mM KCl, 8 μM ATP, GTP, UTP, 1.8 μM CTP, and 0,15 μM [α-^32P] CTP (3000 Ci/mmol) for 5 minutes at 37° C. RNAP was purified as described (Nudler et al, 1996). The DNA template containing the A1 promoter of phage T7 was obtained by polymerase chain reaction from the plasmid pENtR2 (Nudler et al, 1996).
Hydrophobic Amines (ANSA) as *NO-Dependent Enzyme Inhibitors. To investigate whether this mechanism might be functioning in proteins other than BSA, the effect of nitrosation on a completely distinct protein—RNA polymerase from E. coli (RNAP)—was examined. The experiments were done by exposing RNAP to a low dose of *NO, and then adding the DNA template and ribonucleotide substrates to initiate the transcription reaction. For a control, a solution of NO2^− for the *NO was substituted by oxidizing *NO prior to the experiment. […] The *NO-dependent inhibition of RNAP was complex. […] Shorter transcripts represent paused RNAP molecules resulting from the limited amount of CTP in the reaction. […] The complex inhibitory effect of nitrosation on RNAP is not surprising since many potential nitrosation targets are distributed in structurally and functionally distinct regions of the enzyme (Zhang et al, 1999).
To determine whether this process could also occur with RNAP, the mixture of RNAP+ANSA II was treated with *NO (FIG. 3, lane 4).
To further test the autocatalytic mechanism of enzyme inactivation and the key role of nitrosation-azocoupling in this process additional ANSA was synthesized and were tested in the *NO-dependent RNAP inactivation assay (FIG. 3). […] ANSA VI and ANSA VII, with methyl and peptidyl substitutions in the NH2 group, were incapable of forming aryldiazonium cation upon nitrosation. […] This experiment raises the possibility that hydrophobic amines could be used as efficient tools for the *NO-dependent inactivation of enzymes.

[3] = test system: Escherichia coil strain BL21; test: Bactericidal effect of ANSA derivatives on E. coli cultures (CFU count); assay type: cell-based, Escherichia coli; conditions: 20 μg/ml ANSA, 30 minutes, room temperature, start 10^7 CFU ml^−1, *NO and/or PTIO 20 μM where indicated; for CFU, E. coli, rich media: LB broth; for CFU, E. coli, minimal media: M9 minimal media
Description: as §1

[4] = test system: Bacillus subtilis Strain IS75; test: Bactericidal effect of ANSA derivatives on B. subtilis cultures (CFU count); assay type: cell-based; conditions: 20 μg/ml ANSA, 30 minutes, room temperature, start 10^7 CFU ml^−1, *NO and/or PTIO 20 μM where indicated; for CFU, B. subtilis, rich media: LB broth; for CFU, B. subtilis, minimal media: Spizizen's minimal media
Description: as §1

BSA = target: T2, BSA (Bos taurus, UniProt P02769); test: Complex formation and nitrosation of ANSA in the presence of BSA (gel filtration, fluorescence, TLC); assay type: binding; conditions: for Nitrosation of ANSA in the ANSA I+ANSA II+BSA mixture: low dose of *NO (5 molar excess), aerobic
T2 construct: purchased Sigma
Description: ANSA were synthesized from 5-nitronaphthalenesulphoacids and 5-aminonaphthalenesulphoacids (Reahim). TLC of ANSA and their derivatives was carried out on Silica gel 60 plates (Merck) in the hexane/ethyl acetate system. Gel filtration was performed using the Sephadex G25M size-exclusion column (Pharmacia). Fluorescence of ANSA was observed and measured under 365 nm UV light using BioRad Fluor-S MultiImager system.
The present inventors first synthesized two ANSA with opposite hydrophobic properties (FIG. 12B). In the low-hydrophobic ANSA molecule (ANSA I), the R1 group is —CH3 and the R2 group is —H. The highly hydrophobic ANSA (ANSA II) has C3H7 for both R1 and RExperiments were done by mixing an aqueous solution of ANSA with the test protein, and then initiating the nitrosation reaction by the aerobic addition of an aqueous solution of *NO. Two initial concentrations of *NO were used at 25 molar excess over ANSA (high dose) and a 5 molar excess (low dose).

[5] = test system: prostatic carcinoma cell lines DU-145 and PC-3 and normal human fibroblasts (WI-38); test: MTS cytotoxicity assay (CellTiter 96); conditions: for Cytotoxic effect / cell survival (MTS, in words): 0.1-100 μM, 72 h, presence or absence of *NO; for Effect of the additive on ANSA cytotoxicity: NO trap or general NOS inhibitor added
Description: A second preliminary study used two human hormone-independent prostatic carcinoma cell lines DU-145 and PC-3 (ATCC, Virginia) and normal human fibroblasts (WI-38). The MTS cytotoxicity assay (“CellTiter 96”, Promega) was used to measure the cytotoxicity of several ANSA compounds in the presence or absence of *NO. All compounds tested in vitro were dissolved in DMSO ([…]) and subsequently diluted in the culture medium before treatment of the cultured cells. Tested cells were plated in 96-well plates at a density of 4×10^3 cells/well/200 μL of the proper culture medium and treated with the compounds at concentrations of 0.1-100 μM. In parallel, the cells were treated with 1% of DMSO as control. MTS assay was performed 72 h later according to instructions provided by the manufacturer (Promega). This assay is based on the cellular conversion of the tetrazolium salt, MTS[3-(4,5-dimethylthiazol-2-yl)-5-(3-carboxymethoxyphenyl)-2-(4-sulfophenyl)-2H-tetrazolium, inner salt], into a formazan that is soluble in cell culture medium and is measured at 490 nm directly in 96-well assay plates without additional processing. Absorbency is directly proportional to the number of living cells in culture.
In order to be nitrosated, peptidyl-ANSA must undergo cleavage of the C-terminal amino acid residue to relieve the R3 NH2 group.

T2 sequence (P02769 25-607): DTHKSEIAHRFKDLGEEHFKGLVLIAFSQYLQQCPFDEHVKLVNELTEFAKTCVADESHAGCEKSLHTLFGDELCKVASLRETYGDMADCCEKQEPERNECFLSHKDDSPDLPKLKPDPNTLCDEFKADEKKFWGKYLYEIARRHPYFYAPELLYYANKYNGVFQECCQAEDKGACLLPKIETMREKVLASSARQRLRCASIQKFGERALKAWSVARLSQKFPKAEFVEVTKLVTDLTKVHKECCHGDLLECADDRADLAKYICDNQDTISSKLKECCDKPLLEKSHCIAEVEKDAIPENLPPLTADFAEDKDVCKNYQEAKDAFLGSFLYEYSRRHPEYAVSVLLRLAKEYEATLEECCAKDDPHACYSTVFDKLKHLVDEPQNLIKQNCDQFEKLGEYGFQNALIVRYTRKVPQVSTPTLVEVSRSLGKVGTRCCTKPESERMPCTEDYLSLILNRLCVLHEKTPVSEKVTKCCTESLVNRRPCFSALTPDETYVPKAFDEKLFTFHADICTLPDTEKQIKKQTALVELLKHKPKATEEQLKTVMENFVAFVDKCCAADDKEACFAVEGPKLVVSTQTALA
T1 sequence (P0A8V2 whole entry): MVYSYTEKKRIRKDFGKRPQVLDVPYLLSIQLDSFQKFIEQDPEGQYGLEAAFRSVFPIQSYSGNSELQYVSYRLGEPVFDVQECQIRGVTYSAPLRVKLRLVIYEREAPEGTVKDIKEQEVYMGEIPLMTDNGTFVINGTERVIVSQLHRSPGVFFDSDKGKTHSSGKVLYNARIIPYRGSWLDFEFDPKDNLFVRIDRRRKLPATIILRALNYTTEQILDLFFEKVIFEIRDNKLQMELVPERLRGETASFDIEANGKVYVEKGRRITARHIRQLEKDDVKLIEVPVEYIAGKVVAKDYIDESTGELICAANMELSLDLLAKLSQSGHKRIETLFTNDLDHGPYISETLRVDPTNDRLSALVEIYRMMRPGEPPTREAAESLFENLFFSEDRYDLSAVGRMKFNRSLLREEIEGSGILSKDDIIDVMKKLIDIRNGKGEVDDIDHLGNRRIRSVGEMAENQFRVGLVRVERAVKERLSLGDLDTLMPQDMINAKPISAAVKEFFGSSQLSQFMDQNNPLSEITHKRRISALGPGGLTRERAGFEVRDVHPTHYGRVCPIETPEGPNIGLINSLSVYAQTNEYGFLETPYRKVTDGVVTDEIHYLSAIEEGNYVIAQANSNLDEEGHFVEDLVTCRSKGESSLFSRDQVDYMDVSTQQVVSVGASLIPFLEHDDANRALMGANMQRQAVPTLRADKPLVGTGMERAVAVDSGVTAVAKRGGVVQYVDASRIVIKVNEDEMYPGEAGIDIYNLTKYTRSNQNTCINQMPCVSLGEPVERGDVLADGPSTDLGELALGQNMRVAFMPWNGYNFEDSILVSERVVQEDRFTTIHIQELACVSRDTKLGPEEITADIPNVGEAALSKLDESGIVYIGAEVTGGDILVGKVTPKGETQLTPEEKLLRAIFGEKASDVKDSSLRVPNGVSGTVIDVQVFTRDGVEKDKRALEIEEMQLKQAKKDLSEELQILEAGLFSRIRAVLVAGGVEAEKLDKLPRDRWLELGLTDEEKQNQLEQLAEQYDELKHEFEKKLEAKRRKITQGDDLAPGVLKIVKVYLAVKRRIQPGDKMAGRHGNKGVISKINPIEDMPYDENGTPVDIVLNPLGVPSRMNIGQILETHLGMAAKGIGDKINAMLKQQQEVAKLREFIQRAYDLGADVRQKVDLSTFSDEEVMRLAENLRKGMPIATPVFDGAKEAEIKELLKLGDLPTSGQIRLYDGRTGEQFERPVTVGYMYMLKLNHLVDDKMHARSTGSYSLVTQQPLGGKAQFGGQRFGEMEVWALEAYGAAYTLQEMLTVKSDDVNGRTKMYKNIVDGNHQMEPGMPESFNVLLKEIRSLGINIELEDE
T1 sequence (P0A8T7 whole entry): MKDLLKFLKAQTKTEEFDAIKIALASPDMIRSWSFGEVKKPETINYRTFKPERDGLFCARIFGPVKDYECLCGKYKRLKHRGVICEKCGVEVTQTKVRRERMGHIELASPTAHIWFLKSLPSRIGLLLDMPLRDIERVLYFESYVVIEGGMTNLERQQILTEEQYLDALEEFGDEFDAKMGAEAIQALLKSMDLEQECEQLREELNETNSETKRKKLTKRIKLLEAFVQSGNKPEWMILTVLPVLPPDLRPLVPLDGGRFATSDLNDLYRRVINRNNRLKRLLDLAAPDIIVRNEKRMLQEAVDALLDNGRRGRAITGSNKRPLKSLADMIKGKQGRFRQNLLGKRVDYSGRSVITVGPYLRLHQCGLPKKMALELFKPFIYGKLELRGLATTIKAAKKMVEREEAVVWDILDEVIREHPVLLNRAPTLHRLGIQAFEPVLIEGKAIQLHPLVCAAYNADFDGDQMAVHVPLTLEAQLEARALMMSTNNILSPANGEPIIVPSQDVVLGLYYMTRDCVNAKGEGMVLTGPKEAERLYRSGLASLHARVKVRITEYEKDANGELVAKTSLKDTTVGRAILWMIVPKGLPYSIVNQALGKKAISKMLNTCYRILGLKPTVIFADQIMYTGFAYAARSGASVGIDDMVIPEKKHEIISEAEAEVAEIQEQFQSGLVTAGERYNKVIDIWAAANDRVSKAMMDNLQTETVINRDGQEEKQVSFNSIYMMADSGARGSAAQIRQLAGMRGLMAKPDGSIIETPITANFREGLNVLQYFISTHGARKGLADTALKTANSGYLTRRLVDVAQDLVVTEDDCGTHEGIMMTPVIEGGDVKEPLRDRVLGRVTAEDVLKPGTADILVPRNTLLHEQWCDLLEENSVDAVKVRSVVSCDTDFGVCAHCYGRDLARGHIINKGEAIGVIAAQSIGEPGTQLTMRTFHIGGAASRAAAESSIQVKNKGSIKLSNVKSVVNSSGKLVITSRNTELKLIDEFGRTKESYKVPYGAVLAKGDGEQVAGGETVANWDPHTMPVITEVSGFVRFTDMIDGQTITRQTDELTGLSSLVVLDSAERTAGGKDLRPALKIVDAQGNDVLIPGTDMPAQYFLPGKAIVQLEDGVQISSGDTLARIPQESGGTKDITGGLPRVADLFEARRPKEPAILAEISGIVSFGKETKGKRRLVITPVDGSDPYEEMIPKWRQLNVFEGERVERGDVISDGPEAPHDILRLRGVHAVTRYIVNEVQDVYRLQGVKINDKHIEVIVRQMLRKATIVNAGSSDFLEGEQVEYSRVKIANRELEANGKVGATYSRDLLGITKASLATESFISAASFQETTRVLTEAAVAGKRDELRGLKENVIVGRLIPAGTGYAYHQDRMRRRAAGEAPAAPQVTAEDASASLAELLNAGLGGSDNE
T1 sequence (P0A7Z4 whole entry): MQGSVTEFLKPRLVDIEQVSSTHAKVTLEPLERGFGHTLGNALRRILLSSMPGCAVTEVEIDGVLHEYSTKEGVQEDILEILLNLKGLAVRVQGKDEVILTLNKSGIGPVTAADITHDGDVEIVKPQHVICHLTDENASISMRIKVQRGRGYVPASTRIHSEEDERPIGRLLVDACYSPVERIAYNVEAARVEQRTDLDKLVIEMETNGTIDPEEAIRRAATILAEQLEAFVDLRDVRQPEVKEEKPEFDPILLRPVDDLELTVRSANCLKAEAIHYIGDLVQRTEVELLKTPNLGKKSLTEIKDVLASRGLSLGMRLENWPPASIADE
T1 sequence (P0A800 2-91 partner limits assumed): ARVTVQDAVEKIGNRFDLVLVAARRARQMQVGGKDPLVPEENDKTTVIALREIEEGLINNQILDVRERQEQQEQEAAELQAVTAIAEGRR
T1 sequence (P00579 whole entry partner): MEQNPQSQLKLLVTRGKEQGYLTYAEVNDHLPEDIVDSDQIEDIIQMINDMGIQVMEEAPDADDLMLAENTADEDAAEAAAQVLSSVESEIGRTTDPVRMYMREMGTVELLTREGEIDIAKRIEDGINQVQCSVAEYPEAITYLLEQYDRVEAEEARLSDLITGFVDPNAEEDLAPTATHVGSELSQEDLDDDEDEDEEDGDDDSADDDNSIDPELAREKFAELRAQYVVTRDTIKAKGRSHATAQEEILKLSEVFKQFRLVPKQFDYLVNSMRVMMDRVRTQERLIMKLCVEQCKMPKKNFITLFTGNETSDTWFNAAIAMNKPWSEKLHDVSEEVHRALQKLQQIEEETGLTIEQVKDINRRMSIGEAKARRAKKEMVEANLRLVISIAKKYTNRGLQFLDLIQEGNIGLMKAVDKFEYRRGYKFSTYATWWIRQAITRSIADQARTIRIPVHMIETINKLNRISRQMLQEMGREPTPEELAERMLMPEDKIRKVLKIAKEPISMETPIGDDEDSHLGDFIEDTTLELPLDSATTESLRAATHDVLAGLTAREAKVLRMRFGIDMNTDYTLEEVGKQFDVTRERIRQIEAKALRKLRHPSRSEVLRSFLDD

| SMILES | CFU, E. coli, rich media [3] | CFU, E. coli, minimal media [3] | CFU, B. subtilis, rich media [4] | CFU, B. subtilis, minimal media [4] | *NO-dependent inactivation of RNAP (transcription) in the presence of ANSA [2] | further results |
| --- | --- | --- | --- | --- | --- | --- |
| [N]=O [*NO, Nitric oxide, reference compound] | ≈10^6 CFU ml^−1 | ≈10^6 CFU ml^−1 | ≈10^6 CFU ml^−1 | ≈10^6 CFU ml^−1 |  | Effect of the additive on the bactericidal effect of ANSA (CFU) [1]: restored the bactericidal effect; Effect on transcription by RNAP, agent alone [2]: partially inhibited transcription |
| CN(C)S(=O)(=O)c1cccc2c(N)cccc12 [ANSA III] |  |  |  |  | partial negative effect |  |
| CCCN(CCC)S(=O)(=O)c1cccc2c(N)cccc12 [ANSA II] |  |  |  |  | completely inactivated RNAP | Formation of a stable complex with BSA (BSA; gel filtration analysis): able to form a stable complex with BSA; Nitrosation of ANSA in the ANSA I+ANSA II+BSA mixture (BSA): nitrosated; Effect on transcription by RNAP, agent alone [2]: did not affect transcription |
| Nc1cccc2c(S(=O)(=O)N3CCOCC3)cccc12 [ANSA IV] |  |  |  |  | partial negative effect |  |
| CNS(=O)(=O)c1cccc2c(N)cccc12 [ANSA I] | 10^6-10^7 CFU ml^−1 | ≈10^7 CFU ml^−1 | ≈10^7 CFU ml^−1 | ≈10^7 CFU ml^−1 | had no effect on transcription | Cytotoxic effect / cell survival (MTS, in words) [5]: not; Nitrosation of ANSA in the ANSA I+ANSA II+BSA mixture (BSA): intact |
| CCCCCNS(=O)(=O)c1cccc2c(NC)cccc12 [ANSA VIII] | ≈10^7 CFU ml^−1 | ≈10^7 CFU ml^−1 | ≈10^7 CFU ml^−1 | ≈10^7 CFU ml^−1 |  | Cytotoxic effect / cell survival (MTS, in words) [5]: had no effect on cell survival; Bactericidal effect / cell survival (in words) [1]: had no effect on cell survival |
| CCCCCNS(=O)(=O)c1cccc2c(NC(=O)C(CCCNC(=N)N)NC(=O)C(CCCNC(=N)N)NC(=O)CNC(=O)CN)cccc12 (stereo not drawn) [ANSA VII] | 0 CFU ml^−1 |  |  |  | unable to enhance inactivation of RNAP | Cytotoxic effect / cell survival (MTS, in words) [5]: strong cytotoxic effect; Bactericidal effect / cell survival (in words) [1]: strongest bactericidal effect |
| CNc1cccc2c(S(=O)(=O)N(C)C)cccc12 [ANSA VI] |  |  |  |  | unable to enhance inactivation of RNAP |  |
| CCCCCNS(=O)(=O)c1cccc2c(N)cccc12 [ANSA V] | 0-20 CFU ml^−1 | ≈10^3 CFU ml^−1 | 10^2-10^3 CFU ml^−1 | 10^2 CFU ml^−1 | completely inactivated RNAP |  |
| COC(=O)[C@@H](N)CCCNC(=N)N[N+](=O)[O-] [L-NAME, reference compound] |  |  |  |  |  | Effect of the additive on ANSA cytotoxicity [5]: decreased the cytotoxicity |
| O=NO [NO2^−, nitrite, reference compound] |  |  |  |  |  | Effect on transcription by RNAP, agent alone [2]: had no effect |
| CC1(C)N([O])C(c2ccccc2)=[N+]([O-])C1(C)C [PTIO, 2-phenyl-4,4,5,5-tetramethylimidazoline-1-oxyl-3-oxide, reference compound] |  |  |  |  |  | Effect of the additive on ANSA cytotoxicity [5]: decreased the inhibitory effect; Effect of the additive on the bactericidal effect of ANSA (CFU) [1]: almost completely abolished the inhibitory effect |
